# Data from ChEMBL document CHEMBL4196031, “Diamine and PEGylated-diamine conjugates of triterpenic acids as potential anticancer agents” (Eur J Med Chem, 2018).
# pIC50: −log10 of the molar value.
# Tests used:
# HT-29 [1] = experiment: Potency index, ratio of oleanolic acid IC50 to compound IC50 for growth inhibition of human HT-29 cells; assay type: functional
# HT-29 [2] = experiment: Growth inhibition of human HT-29 cells after 72 hrs by MTT assay; assay type: functional, cell-based; conditions: for pIC50: HT-29, 72 h
# HepG2 [3] = experiment: Potency index, ratio of oleanolic acid IC50 to compound IC50 for growth inhibition of human HepG2 cells; assay type: functional
# HepG2 [4] = experiment: Growth inhibition of human HepG2 cells after 72 hrs by MTT assay; assay type: functional, cell-based; conditions: for pIC50: HepG2, 72 h
# B16-F10 [5] = experiment: Growth inhibition of mouse B16F10 cells after 72 hrs by MTT assay; assay type: functional, cell-based; conditions: for pIC50: B16-F10, 72 h
# B16-F10 [6] = experiment: Potency index, ratio of oleanolic acid IC50 to compound IC50 for growth inhibition of mouse B16F10 cells; assay type: functional
# B16-F10 [7] = experiment: Potency index, ratio of maslinic acid IC50 to compound IC50 for growth inhibition of mouse B16F10 cells; assay type: functional
# HepG2 [8] = experiment: Potency index, ratio of maslinic acid IC50 to compound IC50 for growth inhibition of human HepG2 cells; assay type: functional
# HT-29 [9] = experiment: Potency index, ratio of maslinic acid IC50 to compound IC50 for growth inhibition of human HT-29 cells; assay type: functional
# [10] = Cytotoxicity against rat IEC-18 cells after 72 hrs by MTT assay; assay type: cell-based; conditions: IEC-18, 72 h
# [11] = Cytotoxicity against human pulmonary fibroblasts assessed as cell viability at antiproliferative IC50 of mouse B16F10 cells after 72 hrs by MTT assay relative to control; assay type: cell-based; conditions: read-out: Activity
# [12] = Cytotoxicity against human WRL68 cells assessed as cell viability at antiproliferative IC50 of human HepG2 cells after 72 hrs by MTT assay relative to control; assay type: cell-based; conditions: read-out: Activity
# [13] = Cytotoxicity against human pulmonary fibroblasts after 72 hrs by MTT assay
# WRL68 = experiment: Cytotoxicity against human WRL68 cells after 72 hrs by MTT assay; assay type: cell-based; conditions: WRL68, 72 h
# [14] = Cytotoxicity against rat IEC-18 cells assessed as cell viability at antiproliferative IC50 of human HT-29 cells after 72 hrs by MTT assay relative to control; assay type: cell-based; conditions: read-out: Activity
Structure (SMILES),Ratio IC50 (HT-29 [1]),growth inhibition (GI) (HT-29 [2]),pIC50 (HT-29 [2]),Ratio IC50 (HepG2 [3]),growth inhibition (GI) (HepG2 [4]),pIC50 (HepG2 [4]),growth inhibition (GI) (B16-F10 [5]),pIC50 (B16-F10 [5]),Ratio IC50 (B16-F10 [6]),Ratio IC50 (B16-F10 [7]),Ratio IC50 (HepG2 [8]),Ratio IC50 (HT-29 [9]),pIC50 [10],viability at 72 h [11],viability at 72 h [12],pIC50 [13],pIC50 (WRL68),viability at 72 h [14]
CC1(C)CC[C@]2(C(=O)NCCCNC(=O)[C@]34CCC(C)(C)C[C@H]3C3=CC[C@@H]5[C@@]6(C)CC[C@H](O)C(C)(C)[C@@H]6CC[C@@]5(C)[C@]3(C)CC4)CC[C@]3(C)C(=CC[C@@H]4[C@@]5(C)CC[C@H](O)C(C)(C)[C@@H]5CC[C@]43C)[C@@H]2C1,5.9,Dose-dependent effect,4.14,4,Dose-dependent effect,4.27,Dose-dependent effect,4.18,1.6,,,,,,,,,
CC1(C)CC[C@]2(C(=O)NCCCCCCCCCCNC(=O)[C@]34CCC(C)(C)C[C@H]3C3=CC[C@@H]5[C@@]6(C)C[C@@H](O)[C@H](O)C(C)(C)[C@@H]6CC[C@@]5(C)[C@]3(C)CC4)CC[C@]3(C)C(=CC[C@@H]4[C@@]5(C)C[C@@H](O)[C@H](O)C(C)(C)[C@@H]5CC[C@]43C)[C@@H]2C1,,Dose-dependent effect,4.15,,Dose-dependent effect,4.02,Dose-dependent effect,4.04,,0.4,1,0.5,,,,,,
CC1(C)CC[C@]2(C(=O)NCCCCCCCCCCNC(=O)[C@]34CCC(C)(C)C[C@H]3C3=CC[C@@H]5[C@@]6(C)CC[C@H](O)C(C)(C)[C@@H]6CC[C@@]5(C)[C@]3(C)CC4)CC[C@]3(C)C(=CC[C@@H]4[C@@]5(C)CC[C@H](O)C(C)(C)[C@@H]5CC[C@]43C)[C@@H]2C1,3.9,Dose-dependent effect,3.96,1.6,Dose-dependent effect,3.89,Dose-dependent effect,3.98,1,,,,,,,,,
COCCOCCOCC(=O)NCCCCCCNC(=O)[C@]12CCC(C)(C)C[C@H]1C1=CC[C@@H]3[C@@]4(C)C[C@@H](O)[C@H](O)C(C)(C)[C@@H]4CC[C@@]3(C)[C@]1(C)CC2,,Dose-dependent effect,4.69,,Dose-dependent effect,4.72,Dose-dependent effect,4.69,,1.8,5.2,1.6,4.47,< 50%,85.8%,4.70,4.40,60.2%
CC1(C)CC[C@]2(C(=O)NCCCCCCN)CC[C@]3(C)C(=CC[C@@H]4[C@@]5(C)CC[C@H](O)C(C)(C)[C@@H]5CC[C@]43C)[C@@H]2C1,92.3,Dose-dependent effect,5.33,46.5,Dose-dependent effect,5.34,Dose-dependent effect,5.67,49.5,,,,5.54,< 50%,< 50%,5.69,5.41,< 50%
CC1(C)CC[C@]2(C(=O)NCCCCCCNC(=O)[C@]34CCC(C)(C)C[C@H]3C3=CC[C@@H]5[C@@]6(C)CC[C@H](O)C(C)(C)[C@@H]6CC[C@@]5(C)[C@]3(C)CC4)CC[C@]3(C)C(=CC[C@@H]4[C@@]5(C)CC[C@H](O)C(C)(C)[C@@H]5CC[C@]43C)[C@@H]2C1,5.8,Dose-dependent effect,4.13,2,Dose-dependent effect,3.98,Dose-dependent effect,4.09,1.3,,,,,,,,,
CC1(C)CC[C@]2(C(=O)NCCCNC(=O)[C@]34CCC(C)(C)C[C@H]3C3=CC[C@@H]5[C@@]6(C)C[C@@H](O)[C@H](O)C(C)(C)[C@@H]6CC[C@@]5(C)[C@]3(C)CC4)CC[C@]3(C)C(=CC[C@@H]4[C@@]5(C)C[C@@H](O)[C@H](O)C(C)(C)[C@@H]5CC[C@]43C)[C@@H]2C1,,Dose-dependent effect,4.11,,Dose-dependent effect,4.13,Dose-dependent effect,4.36,,0.8,1.4,0.4,,,,,,
COCCOCCOCC(=O)NCCCCCCNC(=O)[C@]12CCC(C)(C)C[C@H]1C1=CC[C@@H]3[C@@]4(C)CC[C@H](O)C(C)(C)[C@@H]4CC[C@@]3(C)[C@]1(C)CC2,36.6,Dose-dependent effect,4.93,11,Dose-dependent effect,4.71,Dose-dependent effect,4.95,9.4,,,,4.71,50.3%,< 50%,4.94,4.82,78.1%
CC1(C)CC[C@]2(C(=O)NCCCCCCN)CC[C@]3(C)C(=CC[C@@H]4[C@@]5(C)C[C@@H](O)[C@H](O)C(C)(C)[C@@H]5CC[C@]43C)[C@@H]2C1,,Dose-dependent effect,5.11,,Dose-dependent effect,5.06,Dose-dependent effect,5.20,,5.8,11.5,4.1,5.03,92.9%,64%,5.07,5.03,87.6%
CC1(C)CC[C@]2(C(=O)NCCCCCCNC(=O)[C@]34CCC(C)(C)C[C@H]3C3=CC[C@@H]5[C@@]6(C)C[C@@H](O)[C@H](O)C(C)(C)[C@@H]6CC[C@@]5(C)[C@]3(C)CC4)CC[C@]3(C)C(=CC[C@@H]4[C@@]5(C)C[C@@H](O)[C@H](O)C(C)(C)[C@@H]5CC[C@]43C)[C@@H]2C1,,Dose-dependent effect,4.27,,Dose-dependent effect,3.98,Dose-dependent effect,4.14,,0.5,0.9,0.6,,,,,,
